{"source": "BindingDB's records for doi:10.1021/jm00214a010", "about": "(1977)", "target": "T1, Aminopeptidase B (Rattus norvegicus, UniProt O09175)", "T1 sequence (O09175 whole entry)": "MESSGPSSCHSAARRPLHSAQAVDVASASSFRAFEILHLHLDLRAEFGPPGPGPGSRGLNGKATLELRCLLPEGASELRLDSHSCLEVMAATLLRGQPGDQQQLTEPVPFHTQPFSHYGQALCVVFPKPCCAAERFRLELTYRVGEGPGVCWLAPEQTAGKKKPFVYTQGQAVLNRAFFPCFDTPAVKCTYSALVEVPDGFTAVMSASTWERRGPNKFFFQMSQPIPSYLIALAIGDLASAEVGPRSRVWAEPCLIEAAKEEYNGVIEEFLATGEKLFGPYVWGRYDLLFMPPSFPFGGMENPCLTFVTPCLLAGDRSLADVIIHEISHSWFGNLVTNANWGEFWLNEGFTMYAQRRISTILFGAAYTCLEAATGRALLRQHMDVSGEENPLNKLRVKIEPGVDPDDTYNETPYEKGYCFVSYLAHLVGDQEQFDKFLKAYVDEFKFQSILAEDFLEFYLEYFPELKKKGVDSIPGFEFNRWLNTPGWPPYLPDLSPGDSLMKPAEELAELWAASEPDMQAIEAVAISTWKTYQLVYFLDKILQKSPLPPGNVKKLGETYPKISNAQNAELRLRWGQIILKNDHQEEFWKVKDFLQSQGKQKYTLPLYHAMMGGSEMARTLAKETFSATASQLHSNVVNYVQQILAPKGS", "experiment": "Inhibition of rat liver aminopeptidase B using 0.2 mM […] by colorimetry", "data": [{"smiles": "CC(C)CCNC(=O)[C@@H](O)[C@H](N)Cc1ccccc1", "values": [{"measurement": "IC50", "value": 640, "unit": "µM"}]}]}
